Here are results for 19 compounds from PubChem BioAssay (NCI).

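Following 48 hours of exposure in 96-well plates, responses at five concentrations were used to interpolate endpoints linearly. Abbreviation: GI50, concentration required for 50% inhibition of growth. TGI marks complete inhibition of growth.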

In the first assay the test system is NCI-H226 lung. As to the kind of experiment: NCI-60 cell line screen, 48 h.
Turning to `Nc1nccc2c1ccn2-c1ccc(NC(=O)c2ccc(N3CCOCC3)c(C(F)(F)F)c2)cc1`, the GI50 was 5.62 µM and the TGI came out at 20 µM.
`Cc1[nH]c2ccccc2c1-c1cc(-c2cc(-c3c(C)[nH]c4ccccc34)on2)no1` registered a TGI of more than 100 µM.
As for `Cn1cnc([N+](=O)[O-])c1S(=O)(=O)Oc1ccccc1`, the GI50 is 19.8 µM and the TGI turned out to be 60 µM.
Consider `COc1cc(C2c3cc4c(cc3C(O)C(CO)C2CO)OCO4)cc(OC)c1OC` (stereo not given), for which the GI50 is 7.47 µM and the TGI was more than 100 µM.
On to `CCCNC(=S)/N=C/c1c(O)c2ccccc2[nH]c1=O`, for which the TGI was more than 100 µM.
Regarding `COC1C(O)=C2C(=O)O/C(C)=C/C=C/C=C/C=C\CC(c3ccccc3)NC(=O)\C=C/C=C\C=C\C=C\[C@@]2(C)[C@@H]1O` (stereo not given in full), the TGI was found to be 0.273 µM.
With `COc1ccc(-c2oc(=O)ccc2-c2cc(OC)c(OC)c(OC)c2)cc1F`, the GI50 is 66.4 µM and the TGI was more than 100 µM.
On the same counts, the results for `CC(C)=CCc1cc(O)cc2c1OC(C=C(C)C)C1=C2C(=O)C2=C(NCCS2(=O)=O)C1=O` (stereo not given) are 2.06 µM and 5.34 µM.
As to `O=C1NC(=S)NNC12c1ccccc1-c1ccccc12`, the TGI is more than 10 µM.
For `Cc1csc(Nc2nc(-c3cccc(Br)c3)nc(C(Cl)(Cl)Cl)n2)n1`, the GI50 was more than 100 µM and the TGI is more than 100 µM.
The compound `COc1c(OC)c(OC)c(C(=O)/C=C/c2ccccc2)c(OC)c1OC` came in with a TGI of 38.4 µM.
Take `NS(=O)(=O)c1ccc(N(/C=C/C(=O)C(F)(F)F)CC(=O)c2ccc(Cl)cc2)cc1`: the GI50 was 28.9 µM and the TGI was 94.1 µM.
`CC1=CC(=O)[C@@H](O)[C@]2(C)[C@H]3[C@@]4(O)OC[C@]35[C@H]([C@@H](C)[C@H]4O)[C@@H](O)C(=O)O[C@@H]5C[C@@H]12` yielded a TGI of 0.694 µM.
On the same count and under the same terms, in the case of `Nc1nc(N)c(N=Nc2ccc([As](=O)(O)O)cc2)c(=O)[nH]1` it was more than 100 µM.
Consider `COc1ccc2[nH]cc(-c3nc(-c4c[nH]c5ncccc45)cs3)c2c1`, for which the GI50 was 3.93 µM and the TGI was more than 100 µM.
Regarding `O=c1cc(-c2ccccc2)[nH]c2c(S)cccc12`, the TGI was found to be 99.7 µM.
Consider `C=CCc1cccc(/C=N/NC(=O)CN2CCN(Cc3ccccc3)CC2)c1O`, for which the GI50 is 2.64 µM and the TGI turned out to be 14 µM.
As for `N#Cc1c(-c2ccc(F)cc2)c(-c2ccc(F)cc2)nn(CCO)c1=O`, the TGI is more than 4.64 µM.

A further assay deals with UO-31 renal. As to the kind of experiment: NCI-60 cell line screen, 48 h.
Regarding `Nc1nccc2c1ccn2-c1ccc(NC(=O)c2ccc(N3CCOCC3)c(C(F)(F)F)c2)cc1`, the GI50 is 0.573 µM and the TGI was 4.15 µM.
Compound `Cc1[nH]c2ccccc2c1-c1cc(-c2cc(-c3c(C)[nH]c4ccccc34)on2)no1` came in with a TGI of more than 100 µM.
On to `Cn1cnc([N+](=O)[O-])c1S(=O)(=O)Oc1ccccc1`, for which the GI50 is 1.68 µM and the TGI was 3.47 µM.
As for `COc1cc(C2c3cc4c(cc3C(O)C(CO)C2CO)OCO4)cc(OC)c1OC` (stereo not given), the TGI was more than 100 µM.
Same read-out and setting: in the case of `CCCNC(=S)/N=C/c1c(O)c2ccccc2[nH]c1=O` it was more than 100 µM.
The compound `COC1C(O)=C2C(=O)O/C(C)=C/C=C/C=C/C=C\CC(c3ccccc3)NC(=O)\C=C/C=C\C=C\C=C\[C@@]2(C)[C@@H]1O` (stereo not given in full) displayed a TGI of 0.0607 µM.
With `COc1ccc(-c2oc(=O)ccc2-c2cc(OC)c(OC)c(OC)c2)cc1F`, the GI50 is 8.79 µM and the TGI turned out to be 35.8 µM.
`COC12C=C/C(=C(/C(=O)OCc3ccncc3)C(=O)CCCCCCCCC3(OC)C=C/C(=C(/C(=O)OCc4ccncc4)C(=O)CCCCCCCC1)O3)O2`: the GI50 was 0.641 µM and the TGI was 1.4 µM.
`CC(C)=CCc1cc(O)cc2c1OC(C=C(C)C)C1=C2C(=O)C2=C(NCCS2(=O)=O)C1=O` (stereo not given): the GI50 was 2.03 µM and the TGI stood at 6.05 µM.
As to `O=C1NC(=S)NNC12c1ccccc1-c1ccccc12`, the TGI is more than 10 µM.
With `Cc1csc(Nc2nc(-c3cccc(Br)c3)nc(C(Cl)(Cl)Cl)n2)n1`, the GI50 was 2.51 µM and the TGI is more than 100 µM.
Compound `COc1c(OC)c(OC)c(C(=O)/C=C/c2ccccc2)c(OC)c1OC` gave a TGI of 22.2 µM.
Regarding `NS(=O)(=O)c1ccc(N(/C=C/C(=O)C(F)(F)F)CC(=O)c2ccc(Cl)cc2)cc1`, the GI50 was 45.3 µM and the TGI was more than 100 µM.
In turn, `CC1=CC(=O)[C@@H](O)[C@]2(C)[C@H]3[C@@]4(O)OC[C@]35[C@H]([C@@H](C)[C@H]4O)[C@@H](O)C(=O)O[C@@H]5C[C@@H]12` gave a TGI of 6.71 µM.
For `Nc1nc(N)c(N=Nc2ccc([As](=O)(O)O)cc2)c(=O)[nH]1`, the TGI was more than 100 µM.
Regarding `COc1ccc2[nH]cc(-c3nc(-c4c[nH]c5ncccc45)cs3)c2c1`, the GI50 is 1.41 µM and the TGI was more than 100 µM.
With `C=CCc1cccc(/C=N/NC(=O)CN2CCN(Cc3ccccc3)CC2)c1O`, the GI50 is 1.15 µM and the TGI was determined as 7.38 µM.
The compound `N#Cc1c(-c2ccc(F)cc2)c(-c2ccc(F)cc2)nn(CCO)c1=O` came in with a TGI of more than 100 µM.

For a further assay, the system named is KM12 colon. As to the kind of experiment: NCI-60 cell line screen, 48 h.
On to `Nc1nccc2c1ccn2-c1ccc(NC(=O)c2ccc(N3CCOCC3)c(C(F)(F)F)c2)cc1`, for which the GI50 is 0.557 µM and the TGI came to 8.5 µM.
Consider `Cc1[nH]c2ccccc2c1-c1cc(-c2cc(-c3c(C)[nH]c4ccccc34)on2)no1`, for which the TGI was more than 100 µM.
`Cn1cnc([N+](=O)[O-])c1S(=O)(=O)Oc1ccccc1`: the GI50 is 26.2 µM and the TGI was more than 78.4 µM.
For `COc1cc(C2c3cc4c(cc3C(O)C(CO)C2CO)OCO4)cc(OC)c1OC` (stereo not given), the GI50 is 0.494 µM and the TGI is more than 47 µM.
With `CCCNC(=S)/N=C/c1c(O)c2ccccc2[nH]c1=O`, the TGI is more than 100 µM.
`COC1C(O)=C2C(=O)O/C(C)=C/C=C/C=C/C=C\CC(c3ccccc3)NC(=O)\C=C/C=C\C=C\C=C\[C@@]2(C)[C@@H]1O` (stereo not given in full) displayed a TGI of 0.165 µM.
Take `COc1ccc(-c2oc(=O)ccc2-c2cc(OC)c(OC)c(OC)c2)cc1F`: the GI50 was 4.52 µM and the TGI was more than 100 µM.
